# Reference: ChEMBL document CHEMBL1201862, “PubChem BioAssay data set” (2004)
#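 Grown in 96-well plates, cells were treated for 48 hours with each compound at five concentrations. Insufficient inhibition: endpoint recorded as highest concentration tested. GI50: concentration for 50% inhibition of growth.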 Calls of active or inactive are those of the source. Rule as the data show it: active = GI50 up to about 1.1 µM and inactive = higher.
# Assays:
# Assay in all cases: NCI-60 cell line screen, 48 h
# NCI-H460 = system: NCI-H460
# ACHN = system: ACHN
# COLO 205 = system: COLO 205
# K562 = system: K562
# HL-60 = system: HL-60
# A498 = system: A498
# SNB-75 = system: SNB-75
# UACC-257 = system: UACC-257
# U-251 = system: U-251
# RPMI-8226 = system: RPMI-8226
# MDA-MB-231 = system: MDA-MB-231
# NCI/ADR-RES = system: NCI/ADR-RES
# SK-MEL-5 = system: SK-MEL-5
# M14 = system: M14
# Hs-578T = system: Hs-578T
# HCT-116 = system: HCT-116
# OVCAR-5 = system: OVCAR-5
# TK-10 = system: TK-10
# 786-0 = system: 786-0
# Malme-3M = system: Malme-3M
# NCI-H522 = system: NCI-H522
# SNB-19 = system: SNB-19
# MCF7 = system: MCF7
# KM12 = system: KM12
# SF-268 = system: SF-268
# A549 = system: A549
# SK-MEL-2 = system: SK-MEL-2
# MOLT-4 = system: MOLT-4
# T47D = system: T47D
# SK-OV-3 = system: SK-OV-3
# UO-31 = system: UO-31
# HOP-62 = system: HOP-62
# PC-3 = system: PC-3
# IGROV-1 = system: IGROV-1
# SW-620 = system: SW-620
# HCC 2998 = system: HCC 2998
# UACC-62 = system: UACC-62
# DU-145 = system: DU-145
# HT-29 = system: HT-29
# MDA-N = system: MDA-N
# RXF 393 = system: RXF 393
# OVCAR-8 = system: OVCAR-8
# NCI-H23 = system: NCI-H23
# OVCAR-3 = system: OVCAR-3
# EKVX = system: EKVX
# SK-MEL-28 = system: SK-MEL-28
# NCI-H226 = system: NCI-H226
# HOP-92 = system: HOP-92
# SN12C = system: SN12C
# BT-549 = system: BT-549
# OVCAR-4 = system: OVCAR-4
# SF-295 = system: SF-295
# MDA-MB-435 = system: MDA-MB-435
# CAKI-1 = system: CAKI-1
# HCT-15 = system: HCT-15
# SF-539 = system: SF-539
# CCRF-CEM = system: CCRF-CEM
# LOX IMVI = system: LOX IMVI
smiles,measurement,setting,value
NS(=O)(=O)c1ccc(/N=N/c2ccc(O)c(C(=O)O)c2)cc1 [SALAZOSULFAMIDE],GI50,NCI-H460,> 100 µM (inactive)
same,GI50,ACHN,> 100 µM (inactive)
same,GI50,COLO 205,> 100 µM (inactive)
same,GI50,K562,> 100 µM (inactive)
same,GI50,HL-60,29.1 µM (inactive)
same,GI50,A498,> 100 µM (inactive)
same,GI50,SNB-75,69 µM (inactive)
same,GI50,UACC-257,> 100 µM (inactive)
same,GI50,U-251,> 100 µM (inactive)
same,GI50,RPMI-8226,> 100 µM (inactive)
same,GI50,MDA-MB-231,> 100 µM (inactive)
same,GI50,NCI/ADR-RES,> 100 µM (inactive)
same,GI50,SK-MEL-5,> 100 µM (inactive)
same,GI50,M14,> 100 µM (inactive)
same,GI50,Hs-578T,23.6 µM (inactive)
same,GI50,HCT-116,> 100 µM (inactive)
same,GI50,OVCAR-5,> 100 µM (inactive)
same,GI50,TK-10,> 100 µM (inactive)
same,GI50,786-0,> 100 µM (inactive)
same,GI50,Malme-3M,52.2 µM (inactive)
same,GI50,NCI-H522,82.4 µM (inactive)
same,GI50,SNB-19,> 100 µM (inactive)
same,GI50,MCF7,> 100 µM (inactive)
same,GI50,KM12,> 100 µM (inactive)
same,GI50,SF-268,> 100 µM (inactive)
same,GI50,A549,> 100 µM (inactive)
same,GI50,SK-MEL-2,20.7 µM (inactive)
same,GI50,MOLT-4,> 100 µM (inactive)
same,GI50,T47D,> 100 µM (inactive)
same,GI50,SK-OV-3,> 100 µM (inactive)
same,GI50,UO-31,> 100 µM (inactive)
same,GI50,HOP-62,> 100 µM (inactive)
same,GI50,PC-3,> 100 µM (inactive)
same,GI50,IGROV-1,> 100 µM (inactive)
same,GI50,SW-620,> 100 µM (inactive)
same,GI50,HCC 2998,> 100 µM (inactive)
same,GI50,UACC-62,> 100 µM (inactive)
same,GI50,DU-145,> 100 µM (inactive)
same,GI50,HT-29,> 100 µM (inactive)
same,GI50,MDA-N,> 100 µM (inactive)
same,GI50,RXF 393,> 100 µM (inactive)
same,GI50,OVCAR-8,> 100 µM (inactive)
same,GI50,NCI-H23,> 100 µM (inactive)
same,GI50,OVCAR-3,> 100 µM (inactive)
same,GI50,EKVX,> 100 µM (inactive)
same,GI50,SK-MEL-28,> 100 µM (inactive)
same,GI50,NCI-H226,> 100 µM (inactive)
same,GI50,HOP-92,> 100 µM (inactive)
same,GI50,SN12C,> 100 µM (inactive)
same,GI50,BT-549,> 100 µM (inactive)
same,GI50,OVCAR-4,> 100 µM (inactive)
same,GI50,SF-295,> 100 µM (inactive)
same,GI50,MDA-MB-435,> 100 µM (inactive)
same,GI50,CAKI-1,> 100 µM (inactive)
same,GI50,HCT-15,> 100 µM
O=C1/C(=N\n2c(S)nnc2-c2ccncc2)c2cc(Cl)ccc2N1CN1CCCCC1,GI50,NCI-H460,36.8 µM (inactive)
same,GI50,ACHN,50.4 µM (inactive)
same,GI50,COLO 205,41 µM (inactive)
same,GI50,K562,20.5 µM (inactive)
same,GI50,HL-60,13.1 µM (inactive)
same,GI50,A498,50.9 µM (inactive)
same,GI50,SNB-75,34.3 µM (inactive)
same,GI50,UACC-257,23.4 µM (inactive)
same,GI50,U-251,40.4 µM (inactive)
same,GI50,MDA-MB-231,> 100 µM (inactive)
same,GI50,NCI/ADR-RES,57.5 µM (inactive)
same,GI50,SK-MEL-5,48.6 µM (inactive)
same,GI50,SF-539,35 µM (inactive)
same,GI50,M14,44.7 µM (inactive)
same,GI50,Hs-578T,19.8 µM (inactive)
same,GI50,HCT-116,37.8 µM (inactive)
same,GI50,OVCAR-5,> 100 µM (inactive)
same,GI50,TK-10,30.3 µM (inactive)
same,GI50,786-0,27.7 µM (inactive)
same,GI50,Malme-3M,> 100 µM (inactive)
same,GI50,NCI-H522,13.7 µM (inactive)
same,GI50,SNB-19,76 µM (inactive)
same,GI50,MCF7,31.2 µM (inactive)
same,GI50,KM12,38.3 µM (inactive)
same,GI50,SF-268,53.5 µM (inactive)
same,GI50,A549,53.2 µM (inactive)
same,GI50,SK-MEL-2,20.9 µM (inactive)
same,GI50,CCRF-CEM,6.97 µM (inactive)
same,GI50,MOLT-4,12.3 µM (inactive)
same,GI50,T47D,23.1 µM (inactive)
same,GI50,SK-OV-3,39.5 µM (inactive)
same,GI50,UO-31,56.5 µM (inactive)
same,GI50,HOP-62,30.3 µM (inactive)
same,GI50,PC-3,34.5 µM (inactive)
same,GI50,IGROV-1,16.1 µM (inactive)
same,GI50,SW-620,18.6 µM (inactive)
same,GI50,UACC-62,34.4 µM (inactive)
same,GI50,DU-145,29.6 µM (inactive)
same,GI50,HT-29,31.2 µM (inactive)
same,GI50,MDA-N,31.5 µM (inactive)
same,GI50,RXF 393,15.8 µM (inactive)
same,GI50,OVCAR-8,31.8 µM (inactive)
same,GI50,NCI-H23,46.6 µM (inactive)
same,GI50,OVCAR-3,73.8 µM (inactive)
same,GI50,EKVX,4.65 µM (inactive)
same,GI50,SK-MEL-28,65.3 µM (inactive)
same,GI50,NCI-H226,> 100 µM (inactive)
same,GI50,HOP-92,56 µM (inactive)
same,GI50,SN12C,55.8 µM (inactive)
same,GI50,BT-549,25.9 µM (inactive)
same,GI50,OVCAR-4,32.2 µM (inactive)
same,GI50,LOX IMVI,17.5 µM (inactive)
same,GI50,SF-295,94 µM (inactive)
same,GI50,MDA-MB-435,32.2 µM (inactive)
same,GI50,CAKI-1,33.7 µM (inactive)
same,GI50,HCT-15,25.4 µM
O=S(=O)(c1ccc(Cl)cc1)c1ccccc1C1=NCCN1,GI50,NCI-H460,> 100 µM (inactive)
same,GI50,ACHN,> 100 µM (inactive)
same,GI50,COLO 205,> 100 µM (inactive)
same,GI50,K562,> 100 µM (inactive)
same,GI50,HL-60,> 100 µM (inactive)
same,GI50,SNB-75,> 100 µM (inactive)
same,GI50,UACC-257,> 100 µM (inactive)
same,GI50,U-251,> 100 µM (inactive)
same,GI50,RPMI-8226,> 100 µM (inactive)
same,GI50,MDA-MB-231,> 100 µM (inactive)
same,GI50,NCI/ADR-RES,> 100 µM (inactive)
same,GI50,SK-MEL-5,> 100 µM (inactive)
same,GI50,M14,> 100 µM (inactive)
same,GI50,Hs-578T,> 100 µM (inactive)
same,GI50,HCT-116,> 100 µM (inactive)
same,GI50,OVCAR-5,> 100 µM (inactive)
same,GI50,TK-10,> 100 µM (inactive)
same,GI50,786-0,> 100 µM (inactive)
same,GI50,Malme-3M,> 100 µM (inactive)
same,GI50,SNB-19,> 100 µM (inactive)
same,GI50,MCF7,> 100 µM (inactive)
same,GI50,KM12,> 100 µM (inactive)
same,GI50,SF-268,> 100 µM (inactive)
same,GI50,A549,> 100 µM (inactive)
same,GI50,SK-MEL-2,> 100 µM (inactive)
same,GI50,CCRF-CEM,> 100 µM (inactive)
same,GI50,MOLT-4,> 100 µM (inactive)
same,GI50,T47D,> 100 µM (inactive)
same,GI50,SK-OV-3,> 100 µM (inactive)
same,GI50,UO-31,> 100 µM (inactive)
same,GI50,HOP-62,> 100 µM (inactive)
same,GI50,PC-3,> 100 µM (inactive)
same,GI50,IGROV-1,> 100 µM (inactive)
same,GI50,SW-620,> 100 µM (inactive)
same,GI50,HCC 2998,> 100 µM (inactive)
same,GI50,UACC-62,> 100 µM (inactive)
same,GI50,DU-145,> 100 µM (inactive)
same,GI50,HT-29,> 100 µM (inactive)
same,GI50,MDA-N,> 100 µM (inactive)
same,GI50,RXF 393,> 100 µM (inactive)
same,GI50,OVCAR-8,> 100 µM (inactive)
same,GI50,NCI-H23,> 100 µM (inactive)
same,GI50,OVCAR-3,> 100 µM (inactive)
same,GI50,EKVX,> 100 µM (inactive)
same,GI50,SK-MEL-28,> 100 µM (inactive)
same,GI50,NCI-H226,> 100 µM (inactive)
same,GI50,SN12C,> 100 µM (inactive)
same,GI50,BT-549,> 100 µM (inactive)
same,GI50,OVCAR-4,> 100 µM (inactive)
same,GI50,SF-295,> 100 µM (inactive)
same,GI50,MDA-MB-435,> 100 µM (inactive)
same,GI50,CAKI-1,> 100 µM (inactive)
same,GI50,HCT-15,> 100 µM
